Results from patent publication US12605350B2, “Composition for preventing, ameliorating, or treating disease caused by nitration of tyrosine in proteins comprising tyrosine as effective component” (INDUSTRY-ACADEMIC COOPERATION FOUNDATION GYEONGSANG …, priority 2020, dated 2026).
Entries after “also recorded” stand apart in the source; their conditions may differ.

Experiments:
[1] = tested on: mouse model of epileptic seizure which has been induced to have seizure by kainic acid; assay: immunohistochemistry of hippocampal area (CA1, CA3): neurons (NeuN) and microglia (Iba1) after kainic acid; type: in vivo; details: tyrosine diet
Procedure: Blood perfusion with PBS and PFA was carried out through animal heart, and the brain was removed and post-fixed in PFA for 15 hours or longer. After washing 3 times for 10 minutes with PBS, brain tissue specimen with thickness of 40 μm was obtained using a vibratome.
In IHC buffer solution (PBS containing 0.3% Triton X-100) in which 3% bovine serum albumin is dissolved, the above-obtained brain specimen was blocked for 1 hour at room temperature and then reacted at 4° C. for 15 hours or longer with a primary antibody (anti-NeuN (Millipore, MAB377, 1:500), anti-Ibal (Wako, 019-19741, 1:200)) (IHC buffer solution containing 3% BSA). After washing 3 times, each for 10 minutes, with the IHC buffer solution, it was reacted with a flurolabeled secondary antibody (anti-Mouse IgG Alexa Fluor 488 (Invitrogen, 1:1000), anti-Rabbit IgG AlexaFluor594 (Invitrogen, […])) for 2 hours at room temperature (IHC buffer solution containing 3% BSA). After washing 3 times, each for 10 minutes, with the IHC buffer solution, the specimen was fixed on a silane-coated glass slide. An anti-fade solution containing DAPI was added onto the specimen and then dried after covering with a cover glass. Signal density of an image photographed with a fluorescent microscope was analyzed by using Image J analysis program.

Cu/Zn SOD = assay: activity of Cu/Zn SOD, renal ischemia and reperfusion; type: in vivo, mouse; details: L-tyrosine 100 mg/kg oral for 4 days, IR
Procedure: C57BL/6 male mouse (23 to 25 g, KOATECH, South Korea) was allowed to have free access to diets and water in sterile breeding room with constant temperature and humidity. The animals were divided into 3 test groups, i.e., 1) Control group (Sham), 2) Renal ischemia having treatment with prepared solvent and induced reperfusion group (CMC+IR), and 3) Renal ischemia having treatment with L-tyrosine and induced reperfusion group (L-Tyr+IR).
L-Tyrosine (100 mg/kg) was suspended in 0.5% CMC (carboxymethyl cellulose). The animal was orally administered, once a day for 4 days, with L-tyrosine or the prepared solvent CMC. Thirty minutes after the oral administration on Day 4, renal ischemia was caused. Specifically, the animal abdomen was cut and renal pedicles at both sides were clamped using a Muller atraumatic vascular clamp to cause renal ischemia. After 25 minutes of blood ischemia, the clamp was removed followed by reperfusion. The control group (Sham) received the same operational procedures as above except the ischemia using clamp. Twenty-four hours after the reperfusion, the test animal was sacrificed, blood was collected from the heart, and the tissues were harvested.

[2] = tested on: mouse model of stroke using endothelin-1; assay: brain infarction (cresyl violet staining) in endothelin-1 stroke model; type: in vivo; details: endothelin-1 (2 μg) to cerebral motor cortex, tyrosine 900 mg/kg (feed weight)
Procedure: To de-ionized water, endothelin-1 was added (2 μg/μl), and, after vigorous vortexing, completely dissolved by ultrasonication at 4° C. for about 10 minutes.
The mouse was anesthetized by intraperitoneal injection of avertin as an anesthetic (0.5 ml/25 g of mouse bodyweight). Thereafter, endothelin-1 was injected (2 μg) to the cerebral motor cortex area (with bregma at the center, AP 1.5 mm, ML-1.5 mm, and DV 1.8 mm) by stereotaxic surgery. The injection was made at speed of 0.3 μl per minute. The needle was left for about 5 minutes after completing the injection so that endothelin-1 can be fully absorbed in animal tissues. After suturing the skin, the animal was allowed to recover in the original cage.
Perfusion with PBS and PFA was carried out, via animal heart and the brain was removed and post-fixed in PFA for 15 hours or longer. After washing 3 times for 10 minutes with PBS, brain tissue specimen with thickness of 40 μm was obtained using a vibratome. Then, four specimens collected from the area injected with endothelin-1 were fixed on a silane-coated glass slide. […] The stained specimen sample was observed under an optical microscope, and, with the stored image, the area showing brain infarction was calculated by using Image J analysis program.

[3] = tested on: animal model of acute hepatic encephalopathy caused by AOM; assay: ALT in plasma, hepatic encephalopathy caused by azoxymethane; type: in vivo, mouse; details: L-tyrosine 100 mg/kg oral once a day for 4 days, AOM 100 mg/kg i.p.
Procedure: (§1) C57BL/6 male mouse (13-week old, KOATECH, South Korea) was allowed to have free access to diets and water in sterile breeding room with constant temperature and humidity. The animals were divided into 3 test groups, i.e., (1) Control group (Control), (2) Carboxymethyl cellulose+azoxymethane treatment group (CMC+AOM), and (3) L-Tyrosine+AOM treatment group (L-Tyr+AOM). L-Tyrosine (100 mg/kg) was suspended in 0.5% CMC (carboxymethyl cellulose). The animal was orally administered, once a day for 4 days, with L-tyrosine or the prepared solvent CMC. Two hours after the oral administration on Day 4, intraperitoneal injection of AOM (100 mg/kg, […]) was carried out. To prevent dehydration, the animal was intraperitoneally injected with […] of physiological saline, 12 hours after the administration of AOM. Four hours after the injection, the test animal was sacrificed, blood was collected from the heart, and the liver tissues were harvested. Blood collected in the above was centrifuged for 15 minutes at 3,000 rpm to separate plasma, and ALT (alanine aminotransferase) as an index of liver cell injury was measured by using ChemiLab GPT Assay Kit (IVD-LAB, Korea). According to the standard measurement method of the kit, absorbance was measured at a wavelength of 340 nm, and then expressed in unit of U/L.

nitrotyrosine protein = nitrotyrosine protein in liver tissues (Western blot), azoxymethane model; type: in vivo, mouse; details: L-tyrosine 100 mg/kg oral for 4 days, 16 hours after the administration of AOM
Procedure: as §1, with “harvested.” for “harvested. Blood collected in the above was centrifuged for 15 minutes at 3,000 rpm to separate plasma, and ALT (alanine aminotransferase) as an index of liver cell injury was measured by using ChemiLab GPT Assay Kit (IVD-LAB, Korea). According to the standard measurement method of the kit, absorbance was measured at a wavelength of 340 nm, and then expressed in unit of U/L.”
Liver tissues were homogenized with RIPA buffer solution. After centrifuge for 15 minutes at 16,000×g, 4° C., supernatant was collected and the protein quantification was carried out by BCA method. After SDS-PAGE electrophoresis, proteins were transferred to a PVDF membrane, and then blocked with 5% skim milk. […]

N[C@@H](Cc1ccc(O)cc1)C(=O)O [tyrosine]
activity of microglia in hippocampal area (CA1, CA3) [1]: reduced; also recorded: significant decrease in the activity of microglia
number of the neuronal cells in hippocampal area (CA1, CA3) [1]: maintained without a loss
activity of Cu/Zn SOD (Cu/Zn SOD): again recovered
infarct volume [2]: infarct volume is reduced

N[C@@H](Cc1ccc(O)cc1)C(=O)O [L-tyrosine]
ALT in plasma [3]: suppressed with statistical significance
nitrotyrosine protein in liver tissues (nitrotyrosine protein): suppressed with statistical significance
